Measurements as given in ChEMBL document CHEMBL6096661, “Synthesis, biological evaluation and mechanism study of a novel indole-pyridine chalcone derivative as antiproliferative agent against tumor cells through dual targeting tubulin and HK2” (Eur J Med Chem, 2025).
Calls of active or inactive are those of the source. The calls are words filed in the database; no cut-off is given here.

How the values were obtained:
[1] = biological target: T1, Tubulin (Homo sapiens) (UniProt P68371+Q9H4B7+P0DPH7+P68366+Q13509+Q71U36+P04350+Q3ZCM7+P07437+P68363+Q9BQE3+Q6PEY2+Q13885+Q9BVA1+Q9BUF5); assay: Disruption of microtubule network in human MDA-MB-231 cells assessed as punctate fiber structure at 1 uM incubated for 24 hrs by DAPI staining based fluorescence microscopic analysis; format: cell-based
[2] = biological target: T1, Tubulin (Homo sapiens); assay: Disruption of microtubule network in human MDA-MB-231 cells assessed as atrophy fiber structure at 1 uM incubated for 24 hrs by DAPI staining based fluorescence microscopic analysis; format: cell-based
[3] = biological target: T1, Tubulin (Homo sapiens); assay: Disruption of microtubule network in human MDA-MB-231 cells assessed as reduced microtubule network at 1 uM incubated for 24 hrs by DAPI staining based fluorescence microscopic analysis; format: cell-based
[4] = tested on: MDA-MB-231; assay: Antiproliferative activity against human MDA-MB-231 cells assessed as reduction in cell proliferation incubated for 48 hrs by CCK-8 assay; format: functional, cell-based; conditions: MDA-MB-231, 48 h
[5] = biological target: T1, Tubulin (Homo sapiens); assay: Disruption of microtubule network in human MDA-MB-231 cells assessed as point-like fiber structure at 1 uM incubated for 24 hrs by DAPI staining based fluorescence microscopic analysis; format: cell-based
[6] = biological target: T1, Tubulin (Homo sapiens); assay: Disruption of microtubule network in human MDA-MB-231 cells assessed as disorganized microtubule network at 1 uM incubated for 24 hrs by DAPI staining based fluorescence microscopic analysis; format: cell-based
[7] = biological target: T2, Hexokinase-2 (Homo sapiens) (UniProt P52789); assay: Inhibition of human HK2 transfected in Escherichia coli BL21 (DE) incubated for 10 mins
T2 sequence (whole entry): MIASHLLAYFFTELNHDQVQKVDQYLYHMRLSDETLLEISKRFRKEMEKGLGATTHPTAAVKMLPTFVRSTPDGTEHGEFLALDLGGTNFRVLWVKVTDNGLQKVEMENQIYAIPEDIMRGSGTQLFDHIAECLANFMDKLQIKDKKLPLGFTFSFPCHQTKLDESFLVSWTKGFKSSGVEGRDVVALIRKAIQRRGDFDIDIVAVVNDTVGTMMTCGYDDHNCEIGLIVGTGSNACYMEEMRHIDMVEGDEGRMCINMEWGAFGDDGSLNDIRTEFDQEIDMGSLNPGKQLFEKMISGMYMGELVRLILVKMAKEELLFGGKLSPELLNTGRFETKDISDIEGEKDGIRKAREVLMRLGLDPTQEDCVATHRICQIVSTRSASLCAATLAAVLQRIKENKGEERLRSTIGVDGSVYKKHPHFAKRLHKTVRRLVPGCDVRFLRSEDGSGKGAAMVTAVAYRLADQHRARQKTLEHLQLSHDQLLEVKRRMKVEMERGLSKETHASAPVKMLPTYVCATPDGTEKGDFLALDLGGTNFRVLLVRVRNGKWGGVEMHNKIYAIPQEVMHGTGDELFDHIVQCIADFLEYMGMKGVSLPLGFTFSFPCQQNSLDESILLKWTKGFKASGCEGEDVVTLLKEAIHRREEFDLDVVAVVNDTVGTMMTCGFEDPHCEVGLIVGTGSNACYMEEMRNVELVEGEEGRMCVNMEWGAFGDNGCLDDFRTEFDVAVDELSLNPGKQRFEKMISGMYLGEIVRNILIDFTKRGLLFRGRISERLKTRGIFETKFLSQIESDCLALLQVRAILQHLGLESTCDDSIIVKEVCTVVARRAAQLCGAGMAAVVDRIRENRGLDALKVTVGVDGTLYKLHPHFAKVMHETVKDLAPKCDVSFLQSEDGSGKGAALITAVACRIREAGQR

[8] = biological target: T2, Hexokinase-2 (Homo sapiens); assay: Binding affinity to human HK2 transfected in Escherichia coli BL21 (DE) by pull down assay
[9] = biological target: Tubulin beta (Homo sapiens) (UniProt P68371+Q9H4B7+Q13509+P04350+Q3ZCM7+P07437+Q13885+Q9BVA1+Q9BUF5+A6NNZ2); assay: Binding affinity to beta-tubulin (unknown origin) by pull down assay; format: protein assay

Activity [1] | Activity [2] | Activity [3] | IC50 [4] [nM] | Activity [5] | Activity [6] | inhibition [7] | Activity [8] | Activity [9] | SMILES
Active | Active | Active | 1940 | Active | Active | inactive |  |  | COc1ccc(CCc2cc(OC)c(OC)c(OC)c2)cc1O
 |  |  |  |  |  |  | Active | Active | O=C1N[C@H]2[C@H](CS[C@H]2CCCCC(=O)N2CCN(c3ccc4c(c3)c(/C=C/C(=O)c3cccnc3)cn4S(=O)(=O)c3ccc([N+](=O)[O-])cc3)CC2)N1
